# Measurements as given in PubChem BioAssay AID1259342 (Broad Institute, 2017).
# The source made the active and inactive calls.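 Rule for the calls: active = fitted half-maximal inhibitory concentration AC50 at most ten times the top concentration tested; inconclusive = flat fit with 30 to 70% inhibition, or unusable fit; inactive = AC50 above ten times the top concentration.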
# Molecular target: E3 ubiquitin-protein ligase TRIM62 (Homo sapiens) (UniProt Q9BVG3)
# Assay: TRIM62 E3 ligase activity on CARD9 – biochemical, ubiquitin ELISA, AlphaLISA TUBE, CARD9-TRIM62 disruptor project, dose response (AID 1259342);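 for AC50: potency is for inhibitors that reduce CARD9 ubiquitylation signal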
# Conditions: TRIM62-mediated CARD9 ubiquitylation, AlphaLISA TUBE detection
# Sequence of E3 ubiquitin-protein ligase TRIM62 (Homo sapiens) (Q9BVG3 whole entry, looked up): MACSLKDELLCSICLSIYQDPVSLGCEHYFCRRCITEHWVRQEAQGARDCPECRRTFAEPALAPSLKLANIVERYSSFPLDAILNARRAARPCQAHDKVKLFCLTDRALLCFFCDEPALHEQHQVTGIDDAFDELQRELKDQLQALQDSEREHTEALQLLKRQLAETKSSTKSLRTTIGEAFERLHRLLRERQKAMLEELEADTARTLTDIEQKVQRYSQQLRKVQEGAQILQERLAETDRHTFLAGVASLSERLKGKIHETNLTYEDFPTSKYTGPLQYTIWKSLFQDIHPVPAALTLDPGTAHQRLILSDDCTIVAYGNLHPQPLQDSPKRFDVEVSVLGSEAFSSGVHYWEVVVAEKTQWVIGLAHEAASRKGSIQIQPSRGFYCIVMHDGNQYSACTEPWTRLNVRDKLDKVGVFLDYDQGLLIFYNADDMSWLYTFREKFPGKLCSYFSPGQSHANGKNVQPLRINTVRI
row,SMILES,AC50
1,CCOc1cc2c(C#N)c(N3CCNCC3)nc(N)c2c(N)n1,> 160 µM (inactive)
2,CC(=O)Nc1ccc2nc3c(=O)n(C)c(=O)n(C)c3nc2c1,48.2 µM
3,COc1ccc(S(=O)(=O)N2CCN(C(=O)c3cc4c(s3)CCC4)CC2)cc1,10.2 µM
4,O=C(Cc1ccc(S(=O)(=O)N2CCOCC2)s1)Nc1nc2c(s1)CCCC2,26 µM
5,Cc1nc(C)c(C(=O)Nc2ncc([N+](=O)[O-])s2)o1,3.96 µM
6,O=C(COc1cccnc1[N+](=O)[O-])c1ccc(Cl)s1,26.2 µM
7,N#Cc1c(NC(=O)CSc2nc3ccccc3o2)sc2c1CCC2,74.1 µM
8,O=C(O)c1ccccc1/C=N/NC(=O)c1cc(-c2ccco2)nc2ccccc12,3 µM
9,Cc1cccc(NC(=O)Cc2coc3ccc4ccccc4c23)n1,70 µM
10,Cc1ccc(-c2nc(C)sc2CC(=O)NCc2ccco2)cc1,56.6 µM
11,Nc1cc2c(cc1O)CCCC2,49.4 µM
12,CC(=O)Nc1ccc(Nc2nc(-c3nnc(-c4cccc(C)c4)o3)nc3ccccc23)cc1,19 µM
13,CCC1c2ccc(C)n2CCN1C(=O)Nc1ccccc1C(=O)OC (configuration not stated),72.5 µM
14,COc1ccc(-c2ccc(CCC(=O)O)o2)cc1,18.1 µM
15,Cc1ccc(N2NC(c3ccc(Br)cc3)=CCC2=O)cc1,> 160 µM (inactive)
16,O=C(O)Cc1c[nH]c2cccc(O)c12,0.921 µM

row,SMILES,AC50
1,O=C(Nc1nc(-c2ccco2)c(-c2ccco2)s1)c1ccco1,4.63 µM
2,COc1ccc(NC(=O)c2nc(Nc3ccccc3)c3ccccc3n2)cc1,67.8 µM
3,CCc1nc(OCc2ccco2)c2sc3nc4c(cc3c2n1)COC(C)(C)C4,> 160 µM (inactive)
4,O=C(Nc1nccs1)c1cc(-c2ccccn2)nc2c(Cl)cccc12,75.4 µM
5,O=C(COC(=O)CCC(=O)c1cccs1)NCc1ccco1,16.6 µM
6,O=c1oc(-c2ccccc2)nc2sc3c(c12)CCC3,> 160 µM (inactive)
7,Cc1cccc2nc(CSCc3ccco3)cn12,78.2 µM
8,O=C(CN1CCN(c2ccccc2O)CC1)NC(=O)NC1CCCC1,> 160 µM (inactive)
9,O=C(Nc1nccs1)c1cc(-c2ccco2)nc2ccccc12,15.7 µM
10,Cc1ccc(C)n1NC(=O)c1ccccc1O,13.5 µM
11,CCCC(=O)NCc1ccc2c(c1)cc(C)n2C,> 160 µM (inactive)
12,COc1ccc2nc(-c3ccco3)c(-c3ccco3)nc2c1,24.9 µM
13,C(=C\c1ccco1)/c1nc2ccccc2[nH]1,29 µM
14,COc1ccc(-n2c(C)c3c(OC)cccc(=O)c3c2C)cc1,27.6 µM
15,CC1CCN(c2nc(-c3ccco3)c3c(c2C#N)CC(C)(C)OC3)CC1,17.6 µM
16,CC(C)C(CC(=O)NCc1ccco1)c1ccco1 (configuration not stated),5.47 µM

# Same assay, conditions: TRIM62-mediated CARD9 ubiquitylation, AlphaLISA TUBE detection; at 38 µM (top of the series)
row,SMILES,"activity change, negative = inhibition"
1,O=C1NC(c2ccc(Br)cc2)Nc2sc3c(c21)CCC3 (configuration not stated),inactive
2,Cc1ccc(C)n1Nc1nc(O)cs1,inactive
3,O=C(Nc1nc(-c2ccccn2)cs1)c1cccc(-n2cnnn2)c1,inactive
4,Cc1ccc(Nc2nc(C(=O)Nc3ccc(Br)cc3)nc3ccccc23)cc1,inactive
5,NC(=O)C1(N2CCCCC2)CCN(c2ncc(NC(=O)c3ccc(F)cc3)cc2C(=O)O)CC1,inactive
6,O=C(NCCc1ccco1)c1ccc(OCc2cn3ccccc3n2)cc1,inactive

# Same assay, conditions: TRIM62-mediated CARD9 ubiquitylation, AlphaLISA TUBE detection; at 80 µM (top of the series)
row,SMILES,"activity change, negative = inhibition"
1,COCC(=O)n1nc(-c2ccco2)nc1NCc1cccs1,inactive
2,CN(c1ccccc1C(=O)NCc1ccco1)S(C)(=O)=O,inactive
3,N#Cc1sc2nc(-c3ccccc3)cc(-c3ccco3)c2c1N,inactive
4,O=C(NCc1ccco1)c1ccc(S(=O)(=O)N2CCOCC2)cc1,inactive
5,O=C(N/N=C/C=C/c1ccco1)c1cncc(Br)c1,inactive
6,CN(C)c1ccc(CN2C[C@H]3CC[C@@H]2CN(C(=O)c2ccncc2)C3)cn1,inactive
7,Cc1ccc(C(=O)Nc2ccc(N3CCC(C(N)=O)(N4CCCCC4)CC3)c(C(=O)O)c2)cc1,inactive
8,CCSCCNC(=O)c1cncc(Br)c1,inactive
9,Fc1ccc(CSc2nnc(-c3cccnc3)n2Cc2ccco2)cc1,inactive
10,COc1ccc(N2Cc3cccc(C(=O)NC(C)CCc4ccco4)c3C2=O)cc1 (configuration not stated),inactive
11,NC(=O)C1(N2CCCCC2)CCN(c2ccc(NC(=O)c3cccc(Cl)c3)cc2C(=O)O)CC1,inactive
12,CCOc1ccc(-n2c3nc4ccccc4nc3c3c(=O)n(Cc4ccco4)cnc32)cc1,inactive
13,O=C1c2cccnc2C(=O)N1Cc1ccc(S(=O)(=O)NCc2ccco2)cc1,inactive
14,C[n+]1cccc2cccc(O)c21,inactive
15,NC(=O)C1(N2CCCCC2)CCN(c2ccc(NC(=O)c3ccccc3F)cc2C(=O)O)CC1,inactive
16,COc1ccc(-c2nc(SCC(=O)N3CCN(c4ccccc4OC)CC3)n[nH]2)cc1,inactive
17,O=C(NC(Sc1ncccn1)C(=O)c1ccccc1)c1ccccc1 (configuration not stated),inactive
18,COCC(=O)N1CCCC2(CCN(CCN3CCCC3)C2=O)C1 (configuration not stated),inactive
19,Cn1ncc2c(NNC(=O)c3cc(O)cc(O)c3)ncnc21,inactive
20,O=C(Cn1cncc1-c1ccc([N+](=O)[O-])cc1)Nc1ccccc1F,inactive
21,CC1(C)Cc2c(c(N3CCOCC3)nc3sc(C(=O)NCc4ccco4)c(N)c23)CO1,inactive
22,O=C(NCCc1ccccc1)c1cc2cccnc2n(Cc2ccccc2)c1=O,inactive
23,O=C(O)c1cc(-c2ccco2)nc2ccccc12,inactive
24,O=C(CCN1CCOCC1)c1ccc2c(c1)OCCO2,inactive
25,N#Cc1c2c(c(NCc3ccco3)n3c1nc1ccccc13)CCC2,inactive
26,O=C(Nc1ccc2oc(-c3ccncc3)nc2c1)c1ccc2c(c1)OCCO2,inactive
27,O=C(CCCN1C(=O)NC2(CCCC2)C1=O)Nc1ccc(F)cc1,inactive
28,FC(F)(F)c1cc(Cl)c2nnc(C(F)(F)Cl)n2c1,inactive
29,O=C1c2ccccc2S(=O)(=O)N1Cc1cccc(S(=O)(=O)N2CCOCC2)c1,inactive
